The source of these data is paper PMC10325900, “A conserved motif in the disordered linker of human MLH1 is vital for DNA mismatch repair and its function is diminished by a cancer family mutation” (Nucleic Acids Research, 2023).

Data set [1] can be described thus: Circular dichroism (CD) of ConMot peptide. The data set is classed as physicochemical. The following applies: 33 μM peptide, 20 mM Na-phosphate pH 7.2, 20°C, 190–300 nm, three scans, 1 mm light path. The method, then: A blank was measured with buffer. […] A blank with buffer only was subtracted.
(In general: Circular dichroism is the unequal absorption of left and right circularly polarised light.)

The conditions of data set [2]: 33 μM peptide, 20 mM Na-phosphate pH 7.2, 25–95°C, detection at 222 nm.
Protocol: For the CD analysis, 33 μM ConMot peptide was used in 20 mM Na-phosphate buffer pH 7.2, 20°C. Three scans were performed with 190–300 nm wavelength, using a 1 mm light path. A blank was measured with buffer. For the melting analysis, 33 μM ConMot peptide was used in 20 mM Na-phosphate buffer pH 7.2. Detection was at 222 nm, temperature was scanned from 25–95°C. A blank with buffer only was subtracted.
The test system of data set [3] is DNA mismatch repair reaction of MMR-proficient HEK293 cell extract. Nature of the data set: MMR competition test with nuclear extract of MMR-proficient HEK293 cells. The data set is classed as biochemical, human. Particulars: up to 75 μM ConMot-32 peptide. As for the experimental part: Mismatch repair activity was assessed as described in detail before ([79],[81]) (Supplementary Figure S3). […] Mismatched DNA plasmid substrate (Supplementary Figure S3) prepared according to previously published procedures ([81–83]) was added, and reactions in a final volume of 25 μl were incubated at 37°C for 15 min. Repair efficiency was scored by purifying the mismatched DNA plasmid from the reaction and assessing the fraction of homoduplex sequence by restriction digestion of the mismatched site using EcoRV. The substrate was additionally linearized with AseI.
For complementation assays with peptide, the indicated peptide(s) were used at stock concentrations of 50 or 500 μM in HEPES–KOH 20 mM pH 7.6 and supplemented to the MMR reactions. […]
Figure 4. […] (C) The concentration-dependence of the MMR-activating effect of the ConMot-32 peptide observed in (B) was measured over a concentration range from 1–75 μM. […] Into this diagram, the average MMR activities (and standard deviations) measured in >3 of the experiment exemplarily shown in C were introduced as bars at ConMot-32 peptide concentrations of 1, 2.5, 7.5, 18 and 75 μM. […]
In parallel, the single- strand nick is ligated. […] 40- 80% absolute repair, determined as signal intensities of the repair bands divided by sum of […]

The target of the next data set is MLH1-PMS2. Nature of the data set: Comparison of MMR restoration with theoretical binding curves of peptide to protein. Set-up: species or system human. Particulars: theoretical binding curves at 11.1 nM MLH1; not a direct binding measurement; read-out: KD whose theoretical fraction of peptide binding to a protein corresponds to the degree of MMR restoration. The method, then:
Figure 4. Reaction of DNA mismatch repair to addition of ConMot peptide. (A) Nuclear extract of MLH1-proficient HEK293 cells was used for performing the DNA mismatch repair reaction. Four reactions were undertaken, with two reactions supplemented with either 7.5 μM or 75 μM ConMot-32 peptide. A negative control reaction was performed by omitting the 37°C repair incubation. (B) MMR reactions were performed with nuclear extract of MLH1-deficient HEK293T cells supplemented with extract of cells transfected either with wildtype MLH1-PMS2 (positive control) or with MLH1-ΔConMot-PMS2. […] (C) The concentration-dependence of the MMR-activating effect of the ConMot-32 peptide observed in (B) was measured over a concentration range from 1–75 μM. […] Into this diagram, the average MMR activities (and standard deviations) measured in >3 of the experiment exemplarily shown in C were introduced as bars at ConMot-32 peptide concentrations of 1, 2.5, 7.5, 18 and 75 μM.
We investigated the effect of the ConMot peptide more closely by titrating the required peptide concentrations for activation. We determined that the mismatch repair reactions performed in this study contained approximately 280 fmol MLH1 (Supplementary Figure S4A and B), which is in good agreement with previous quantifications of MLH1-PMS2 in cells and extracts ([96]). […]
B. Immunoblot band intensities were determined. […]

No end group written: not given here.

Regarding “SGSSDKVYAHQMVRTDSREQKLDAFLQPLSKP [ConMot-32]”, the “secondary structure formation by circular dichroism” value in data set [1] is “Neither investigation provided evidence for secondary structure formation”. In data set [2], the “secondary structure formation by melting analysis” value is “Neither investigation provided evidence for secondary structure formation”. For the same sequence, the “interference with regular DNA mismatch repair” value is on record as “did not detectably interfere” in data set [3] (listed as ConMot peptide) and “not attenuated” in data set [3] (listed as ConMot-peptide). For the same sequence, on MLH1-PMS2, the Kd was around 7.5 µM.
